Values quoted from earlier work in US11529387B2, “Nutritional supplements and methods of nutritional supplementation affecting global mood state” (Amare Global, priority 2019, dated 2022).

Key:
[1] = runners, submaximal running intensity, week 8 post-supplementation vs pre-supplementation and vs placebo, p<0.05

In the case of CC1=C(/C=C/C(C)=C/C=C/C(C)=C/C=C/C=C(C)/C=C/C=C(C)/C=C/C2=C(C)C(=O)[C@@H](O)CC2(C)C)C(C)(C)C[C@H](O)C1=O [NAX, astaxanthin], the “heart rate (HR) at AT, anaerobic threshold” value [1] is listed as “significantly lower heart rate”, the “heart rate (HR) at AeT, aerobic threshold” value [1] is listed as “significantly lower heart rate” and the “Global Mood State score” value (8 weeks post-supplementation, lower score = more positive mood) is listed as 127+20. The “Global Mood change” value (8 weeks post-supplementation, lower score = more positive mood, p<0.05) was −11%, the Anger sub-scale change (baseline to week 8, NS) was −12% and the Confusion sub-scale change (baseline to week 8, NS) was −28%. For the same compound, the Tension sub-scale change (baseline to week 8, NS) was −20%, the Vigor sub-scale change (baseline to week 8, NS) was “+5%” and the Depression sub-scale change (baseline to week 8, p<0.05) was −57%. The Fatigue sub-scale change (baseline to week 8, p<0.05) was −36%.
